ChEMBL document CHEMBL4229518, “New β-lactam - Tetramic acid hybrids show promising antibacterial activities” (Bioorg Med Chem Lett, 2018)
≈ marks a conversion by molar mass, not a printed value.

Columns and labels:
Assay type in all cases: functional
Bacillus anthracis = test: Antimicrobial activity against Bacillus anthracis Sterne 34F2 after 18 to 20 hrs by microbroth dilution method
Bacillus subtilis = test: Antimicrobial activity against Bacillus subtilis ATCC 23857 after 18 to 20 hrs by microbroth dilution method
Pseudomonas aeruginosa = test: Antimicrobial activity against Pseudomonas aeruginosa PAO1 after 18 to 20 hrs by microbroth dilution method
Escherichia coli [1] = test: Antimicrobial activity against Escherichia coli BW25113 after 18 to 20 hrs by microbroth dilution method
Escherichia coli [2] = test: Antimicrobial activity against tolC deficient Escherichia coli JW5503-1 after 18 to 20 hrs by microbroth dilution method
Klebsiella pneumoniae [3] = test: Antimicrobial activity against Klebsiella pneumoniae ATCC 33495 after 18 to 20 hrs by microbroth dilution method
Acinetobacter baumannii = test: Antimicrobial activity against Acinetobacter baumannii ATCC 19606 after 18 to 20 hrs by microbroth dilution method; conditions: ATCC 19606 = CIP 70.34 = JCM 6841
Staphylococcus aureus [4] = test: Antimicrobial activity against methicillin-susceptible Staphylococcus aureus NRS70 after 18 to 20 hrs by microbroth dilution method
Staphylococcus aureus [5] = test: Antimicrobial activity against methicillin-susceptible Staphylococcus aureus ATCC 29213 after 18 to 20 hrs by microbroth dilution method
Proteus mirabilis = test: Antimicrobial activity against Proteus mirabilis ATCC 25933 after 18 to 20 hrs by microbroth dilution method
Enterococcus faecalis = test: Antimicrobial activity against Enterococcus faecalis ATCC 33186 after 18 to 20 hrs by microbroth dilution method
Streptococcus pneumoniae = test: Antimicrobial activity against Streptococcus pneumoniae R6 after 18 to 20 hrs by microbroth dilution method
Bacillus cereus = test: Antimicrobial activity against Bacillus cereus ATCC 14579 after 18 to 20 hrs by microbroth dilution method
Enterobacter cloacae = test: Antimicrobial activity against Enterobacter cloacae ATCC 13047 after 18 to 20 hrs by microbroth dilution method; conditions: subsp. cloacae ATCC 13047
Streptococcus pyogenes = test: Antimicrobial activity against Streptococcus pyogenes ATCC 700294 after 18 to 20 hrs by microbroth dilution method; conditions: M1 GAS
[6] = test system: Stenotrophomonas maltophilia; test: Antimicrobial activity against Stenotrophomonas maltophilia ATCC 700475 after 18 to 20 hrs by microbroth dilution method
Klebsiella pneumoniae [7] = test: Antimicrobial activity against Klebsiella pneumoniae isolate SJ 2 after 18 to 20 hrs by microbroth dilution method
Escherichia coli [8] = test: Antimicrobial activity against Escherichia coli isolate SJ 2 after 18 to 20 hrs by microbroth dilution method
Escherichia coli [9] = test: Antimicrobial activity against Escherichia coli isolate SJ 1 after 18 to 20 hrs by microbroth dilution method
Escherichia coli [10] = test: Antimicrobial activity against Escherichia coli isolate SJ 4 after 18 to 20 hrs by microbroth dilution method
Escherichia coli [11] = test: Antimicrobial activity against Escherichia coli isolate SJ 6 after 18 to 20 hrs by microbroth dilution method
Klebsiella pneumoniae [12] = test: Antimicrobial activity against Klebsiella pneumoniae isolate SJ 1 after 18 to 20 hrs by microbroth dilution method
Klebsiella pneumoniae [13] = test: Antimicrobial activity against Klebsiella pneumoniae isolate SJ 4 after 18 to 20 hrs by microbroth dilution method
Klebsiella pneumoniae [14] = test: Antimicrobial activity against Klebsiella pneumoniae isolate SJ 3 after 18 to 20 hrs by microbroth dilution method
Escherichia coli [15] = test: Antimicrobial activity against Escherichia coli isolate SJ 5 after 18 to 20 hrs by microbroth dilution method
Escherichia coli [16] = test: Antimicrobial activity against Escherichia coli isolate SJ 3 after 18 to 20 hrs by microbroth dilution method
Klebsiella pneumoniae [17] = test: Antimicrobial activity against Klebsiella pneumoniae isolate SJ 5 after 18 to 20 hrs by microbroth dilution method
Escherichia coli [18] = test: Antimicrobial activity against Escherichia coli ATCC 35218 expressing TEM-1 beta lactamases after 18 to 20 hrs by microbroth dilution method
Escherichia coli [19] = test: Antimicrobial activity against Escherichia coli ATCC 25922 after 18 to 20 hrs by microbroth dilution method

Structure (SMILES)	MIC (Bacillus anthracis)	MIC (Bacillus subtilis)	MIC (Pseudomonas aeruginosa)	MIC (Escherichia coli [1])	MIC (Escherichia coli [2])	MIC (Klebsiella pneumoniae [3])	MIC (Acinetobacter baumannii)	MIC (Staphylococcus aureus [4])	MIC (Staphylococcus aureus [5])	MIC (Proteus mirabilis)	MIC (Enterococcus faecalis)	MIC (Streptococcus pneumoniae)	MIC (Bacillus cereus)	MIC (Enterobacter cloacae)	MIC (Streptococcus pyogenes)	MIC [6]	also measured
CC1=C(C(=O)O)N2C(=O)[C@@H](NC(=O)CCNC(=O)C3=C(O)C(CC(C)C)NC3=O)[C@H]2SC1 (stereo partly drawn)	200 µg/mL (≈ 429 µM)	100 µg/mL (≈ 214 µM)	> 200 µg/mL	> 200 µg/mL	> 200 µg/mL	> 200 µg/mL	> 200 µg/mL	100 µg/mL (≈ 214 µM)	50 µg/mL (≈ 107 µM)	> 200 µg/mL	> 200 µg/mL	200 µg/mL (≈ 429 µM)	> 200 µg/mL	> 200 µg/mL	> 200 µg/mL	> 200 µg/mL	
CC(C)CC1NC(=O)C(C(=O)NCCC(=O)N[C@@H](C(=O)N[C@@H]2C(=O)N3C(C(=O)O)=C(Cl)CS[C@H]23)c2ccccc2)=C1O (stereo partly drawn)	12.5 µg/mL (≈ 20.2 µM)	0.78 µg/mL (≈ 1.26 µM)	> 200 µg/mL	12.5 µg/mL (≈ 20.2 µM)	12.5 µg/mL (≈ 20.2 µM)	50 µg/mL (≈ 80.6 µM)	50 µg/mL (≈ 80.6 µM)	25 µg/mL (≈ 40.3 µM)	0.78 µg/mL (≈ 1.26 µM)	1.56 µg/mL (≈ 2.52 µM)	100 µg/mL (≈ 161 µM)	0.39 µg/mL (≈ 0.629 µM)	> 200 µg/mL	> 200 µg/mL	1.56 µg/mL (≈ 2.52 µM)	> 200 µg/mL	
CC(C)CC1NC(=O)C(C(=O)NCCC(=O)N[C@@H](C(=O)N[C@@H]2C(=O)N3[C@@H]2SC(C)(C)[C@@H]3C(=O)O)c2ccccc2)=C1O (stereo partly drawn)	3.13 µg/mL (≈ 5.2 µM)	3.13 µg/mL (≈ 5.2 µM)	25 µg/mL (≈ 41.6 µM)	50 µg/mL (≈ 83.1 µM)	25 µg/mL (≈ 41.6 µM)	200 µg/mL (≈ 332 µM)	200 µg/mL (≈ 332 µM)	50 µg/mL (≈ 83.1 µM)	0.78 µg/mL (≈ 1.3 µM)	6.25 µg/mL (≈ 10.4 µM)	50 µg/mL (≈ 83.1 µM)	< 0.2 µg/mL	25 µg/mL (≈ 41.6 µM)	> 200 µg/mL	0.78 µg/mL (≈ 1.3 µM)	50 µg/mL (≈ 83.1 µM)	
CC1(C)S[C@@H]2[C@H](NC(=O)[C@H](N)c3ccccc3)C(=O)N2[C@H]1C(=O)O [AMPICILLIN]	< 0.2 µg/mL	< 0.2 µg/mL	200 µg/mL (≈ 572 µM)	3.13 µg/mL (≈ 8.96 µM)	1.56 µg/mL (≈ 4.46 µM)	100 µg/mL (≈ 286 µM)	50 µg/mL (≈ 143 µM)	25 µg/mL (≈ 71.5 µM)	< 0.2 µg/mL	< 0.2 µg/mL	0.78 µg/mL (≈ 2.23 µM)	< 0.2 µg/mL	25 µg/mL (≈ 71.5 µM)	> 200 µg/mL	< 0.2 µg/mL	6.25 µg/mL (≈ 17.9 µM)	MIC (Klebsiella pneumoniae [7]): 25 µg/mL (≈ 71.5 µM); MIC (Escherichia coli [8]): > 200 µg/mL; MIC (Escherichia coli [9]): > 200 µg/mL; MIC (Escherichia coli [10]): > 200 µg/mL; MIC (Escherichia coli [11]): > 200 µg/mL; MIC (Klebsiella pneumoniae [12]): > 200 µg/mL; MIC (Klebsiella pneumoniae [13]): 100 µg/mL (≈ 286 µM); MIC (Klebsiella pneumoniae [14]): 100 µg/mL (≈ 286 µM); MIC (Escherichia coli [15]): > 200 µg/mL; MIC (Escherichia coli [16]): > 200 µg/mL; MIC (Klebsiella pneumoniae [17]): > 200 µg/mL; MIC (Escherichia coli [18]): > 200 µg/mL; MIC (Escherichia coli [19]): 3.13 µg/mL (≈ 8.96 µM)
CC1=C(C(=O)O)N2C(=O)[C@@H](NC(=O)[C@H](NC(=O)CCNC(=O)C3=C(O)C(CC(C)C)NC3=O)c3ccccc3)[C@H]2SC1 (stereo partly drawn)	100 µg/mL (≈ 167 µM)	6.25 µg/mL (≈ 10.4 µM)	> 200 µg/mL	200 µg/mL (≈ 334 µM)	200 µg/mL (≈ 334 µM)	200 µg/mL (≈ 334 µM)	> 200 µg/mL	50 µg/mL (≈ 83.4 µM)	3.13 µg/mL (≈ 5.22 µM)	50 µg/mL (≈ 83.4 µM)	> 200 µg/mL	12.5 µg/mL (≈ 20.8 µM)	> 200 µg/mL	> 200 µg/mL	12.5 µg/mL (≈ 20.8 µM)	> 200 µg/mL	
CO[C@@]1(NC(=O)C2SC(=C(C(N)=O)C(=O)O)S2)C(=O)N2C(C(=O)O)=C(CSc3nnnn3C)CS[C@@H]21 (stereo partly drawn) [CEFOTETAN]			> 200 µg/mL	25 µg/mL (≈ 43.4 µM)	1.56 µg/mL (≈ 2.71 µM)	< 0.2 µg/mL	100 µg/mL (≈ 174 µM)			< 0.2 µg/mL							MIC (Klebsiella pneumoniae [7]): < 0.2 µg/mL; MIC (Escherichia coli [8]): 1.56 µg/mL (≈ 2.71 µM); MIC (Escherichia coli [9]): 0.39 µg/mL (≈ 0.678 µM); MIC (Escherichia coli [10]): 1.56 µg/mL (≈ 2.71 µM); MIC (Escherichia coli [11]): 25 µg/mL (≈ 43.4 µM); MIC (Klebsiella pneumoniae [12]): < 0.2 µg/mL; MIC (Klebsiella pneumoniae [13]): 0.39 µg/mL (≈ 0.678 µM); MIC (Klebsiella pneumoniae [14]): 0.39 µg/mL (≈ 0.678 µM); MIC (Escherichia coli [15]): 12.5 µg/mL (≈ 21.7 µM); MIC (Escherichia coli [16]): 0.78 µg/mL (≈ 1.36 µM); MIC (Klebsiella pneumoniae [17]): 1.56 µg/mL (≈ 2.71 µM); MIC (Escherichia coli [18]): < 0.2 µg/mL; MIC (Escherichia coli [19]): 1.56 µg/mL (≈ 2.71 µM)
CC1=C(C(=O)O)N2C(=O)[C@@H](NC(=O)[C@H](NC(=O)C3=C(O)C(CC(C)C)NC3=O)c3ccccc3)[C@H]2SC1 (stereo partly drawn)	200 µg/mL (≈ 378 µM)	25 µg/mL (≈ 47.3 µM)	> 200 µg/mL	> 200 µg/mL	100 µg/mL (≈ 189 µM)	> 200 µg/mL	100 µg/mL (≈ 189 µM)	100 µg/mL (≈ 189 µM)	12.5 µg/mL (≈ 23.6 µM)	100 µg/mL (≈ 189 µM)	200 µg/mL (≈ 378 µM)	100 µg/mL (≈ 189 µM)	> 200 µg/mL	> 200 µg/mL	3.13 µg/mL (≈ 5.92 µM)	100 µg/mL (≈ 189 µM)	
